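1) Cells in 96-well plates. 2) Compound, 48 h, 5 concentrations. 3) Linear interpolation between surrounding doses. 4) Unreached endpoint = highest concentration. At the GI50, growth is halved.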 Active and inactive are the calls of the source. No stated cut-off is given here; in the data, active = GI50 up to about 1.1 µM and inactive = higher.
Experiments:
Test in all cases: inhibition of tumour cell growth, NCI panel, 48 h
HOP-62 = tested on: HOP-62
SNB-75 = tested on: SNB-75
SK-MEL-28 = tested on: SK-MEL-28
UACC-62 = tested on: UACC-62
A498 = tested on: A498
SK-MEL-2 = tested on: SK-MEL-2
SF-268 = tested on: SF-268
Malme-3M = tested on: Malme-3M
K562 = tested on: K562
PC-3 = tested on: PC-3
SR = tested on: SR
A549 = tested on: A549
NCI-H522 = tested on: NCI-H522
HL-60 = tested on: HL-60
SNB-19 = tested on: SNB-19
MDA-N = tested on: MDA-N
KM12 = tested on: KM12
HCC 2998 = tested on: HCC 2998
COLO 205 = tested on: COLO 205
T47D = tested on: T47D
OVCAR-3 = tested on: OVCAR-3
HT-29 = tested on: HT-29
SK-MEL-5 = tested on: SK-MEL-5
NCI/ADR-RES = tested on: NCI/ADR-RES
OVCAR-5 = tested on: OVCAR-5
MCF7 = tested on: MCF7
HOP-92 = tested on: HOP-92
NCI-H226 = tested on: NCI-H226
M14 = tested on: M14
NCI-H460 = tested on: NCI-H460
NCI-H23 = tested on: NCI-H23
U-251 = tested on: U-251
786-0 = tested on: 786-0
TK-10 = tested on: TK-10
LOX IMVI = tested on: LOX IMVI
Hs-578T = tested on: Hs-578T
CAKI-1 = tested on: CAKI-1
OVCAR-4 = tested on: OVCAR-4
IGROV-1 = tested on: IGROV-1
SN12C = tested on: SN12C
SF-295 = tested on: SF-295
HCT-15 = tested on: HCT-15
OVCAR-8 = tested on: OVCAR-8
SW-620 = tested on: SW-620
ACHN = tested on: ACHN
SK-OV-3 = tested on: SK-OV-3
EKVX = tested on: EKVX
DU-145 = tested on: DU-145
MDA-MB-435 = tested on: MDA-MB-435
SF-539 = tested on: SF-539
RPMI-8226 = tested on: RPMI-8226
HCT-116 = tested on: HCT-116
UACC-257 = tested on: UACC-257

SMILES: NCC#CCNCCCN1CC1
- GI50 (HOP-62): > 100 µM (inactive)
- GI50 (SNB-75): < 0.01 µM (active)
- GI50 (SK-MEL-28): > 100 µM (inactive)
- GI50 (UACC-62): > 100 µM (inactive)
- GI50 (A498): > 100 µM (inactive)
- GI50 (SK-MEL-2): > 100 µM (inactive)
- GI50 (SF-268): > 100 µM (inactive)
- GI50 (Malme-3M): > 100 µM (inactive)
- GI50 (K562): > 100 µM (inactive)
- GI50 (PC-3): > 100 µM (inactive)
- GI50 (SR): > 100 µM (inactive)
- GI50 (A549): > 100 µM (inactive)
- GI50 (NCI-H522): > 100 µM (inactive)
- GI50 (HL-60): > 100 µM (inactive)
- GI50 (SNB-19): > 100 µM (inactive)
- GI50 (MDA-N): > 100 µM (inactive)
- GI50 (KM12): > 100 µM (inactive)
- GI50 (HCC 2998): > 100 µM (inactive)
- GI50 (COLO 205): > 100 µM (inactive)
- GI50 (T47D): > 100 µM (inactive)
- GI50 (OVCAR-3): > 100 µM (inactive)
- GI50 (HT-29): > 100 µM (inactive)
- GI50 (SK-MEL-5): > 100 µM (inactive)
- GI50 (NCI/ADR-RES): > 100 µM (inactive)
- GI50 (OVCAR-5): > 100 µM (inactive)
- GI50 (MCF7): > 100 µM (inactive)
- GI50 (HOP-92): > 100 µM (inactive)
- GI50 (NCI-H226): > 100 µM (inactive)
- GI50 (M14): > 100 µM (inactive)
- GI50 (NCI-H460): > 100 µM (inactive)
- GI50 (NCI-H23): > 100 µM (inactive)
- GI50 (U-251): > 100 µM (inactive)
- GI50 (786-0): > 100 µM (inactive)
- GI50 (TK-10): > 100 µM (inactive)
- GI50 (LOX IMVI): > 100 µM (inactive)
- GI50 (Hs-578T): > 100 µM (inactive)
- GI50 (CAKI-1): > 100 µM (inactive)
- GI50 (OVCAR-4): > 100 µM (inactive)
- GI50 (IGROV-1): > 100 µM (inactive)
- GI50 (SN12C): > 100 µM (inactive)
- GI50 (SF-295): > 100 µM (inactive)
- GI50 (HCT-15): > 100 µM
- GI50 (OVCAR-8): > 100 µM (inactive)
- GI50 (SW-620): > 100 µM (inactive)
- GI50 (ACHN): > 100 µM (inactive)
- GI50 (SK-OV-3): > 100 µM (inactive)
- GI50 (EKVX): > 100 µM (inactive)
- GI50 (DU-145): > 100 µM (inactive)
- GI50 (MDA-MB-435): > 100 µM (inactive)
- GI50 (SF-539): > 100 µM (inactive)
- GI50 (RPMI-8226): 6.11 µM (inactive)
- GI50 (HCT-116): > 100 µM (inactive)
- GI50 (UACC-257): > 100 µM (inactive)
